Our source for the drug sensitivity score values is the supplement of paper PMC10920090.

In assay [1] the test system is MDA-MB-231. Briefly: drug sensitivity score (DSS), cytotoxicity CellTox Green; higher = more cytotoxic; extreme values may be limits of the assay. Conditions: 72 h.
Assay [2] has as its system MDA-MB-231. The assay is described as follows: drug sensitivity score (DSS), cell viability CellTiter-Glo; higher = more sensitive; extreme values may be limits of the assay. Conditions: 72 h. In general terms: ATP-based viability assays read luminescence as a measure of living cells.
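Wherever drug sensitivity score (DSS), cytotoxicity CellTox Green is given: DSS summarises each dose–response curve by combining IC50, EC50, maximal inhibition and efficacy across drug concentrations.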

Take `Cc1c(N)nc([C@H](CC(N)=O)NC[C@H](N)C(N)=O)nc1C(=O)N[C@H](C(=O)N[C@H](C)[C@@H](O)[C@H](C)C(=O)N[C@H](C(=O)NCCc1nc(-c2nc(C(=O)NCCC[S+](C)C)cs2)cs1)[C@@H](C)O)[C@@H](OC1OC(CO)C(O)C(O)C1OC1OC(CO)C(O)C(OC(N)=O)C1O)c1cnc[nH]1` (stereo partly drawn) [Bleomycin]: the drug sensitivity score is 0.1 DSS in assay [1] (shRNA: shPPFIA1_1), 0 DSS in assay [1] (shRNA: shScramble), 0 DSS in assay [2] (shRNA: shPPFIA1_1) and 3.5 DSS in assay [2] (shRNA: shScramble).

`CCN1CCN(Cc2ccc(-c3cc4c(N[C@H](C)c5ccccc5)ncnc4[nH]3)cc2)CC1` [NVP-AEE788]: the drug sensitivity score in assay [1] (shRNA: shPPFIA1_1) was found to be 0 DSS; in assay [1] (shRNA: shScramble), 0 DSS; in assay [2] (shRNA: shPPFIA1_1), 0.4 DSS; in assay [2] (shRNA: shScramble), 0.8 DSS.

As to `O=C(/C=C\n1cnc(-c2cc(C(F)(F)F)cc(C(F)(F)F)c2)n1)NNc1cnccn1` [Selinexor], the drug sensitivity score in assay [1] (shRNA: shPPFIA1_1) is 5.8 DSS; in assay [1] (shRNA: shScramble), 8.1 DSS; in assay [2] (shRNA: shPPFIA1_1), 8.6 DSS; in assay [2] (shRNA: shScramble), 13.5 DSS.

For the molecule `O=c1ncn2nc(Sc3ccc(F)cc3F)ccc2c1-c1c(Cl)cccc1Cl` [VX 745], the drug sensitivity score in assay [1] (shRNA: shPPFIA1_1), in assay [1] (shRNA: shScramble), in assay [2] (shRNA: shPPFIA1_1) and in assay [2] (shRNA: shScramble) was 0 DSS throughout.

Turning to `Cc1cc(C(C)Nc2ccccc2)c2nc(N3CCOCC3)cc(=O)n2c1` (stereo not drawn) [TGX-221], the drug sensitivity score amounted to 0.6 DSS in assay [1] (shRNA: shPPFIA1_1), 0 DSS in assay [1] (shRNA: shScramble), 0 DSS in assay [2] (shRNA: shPPFIA1_1) and 3.2 DSS in assay [2] (shRNA: shScramble).

For the molecule `Cc1c(CN2CCN(C(=O)[C@H](C)O)CC2)sc2c(N3CCOCC3)nc(-c3cnc(N)nc3)nc12` [Apitolisib], the drug sensitivity score in assay [1] (shRNA: shPPFIA1_1) was 0 DSS; in assay [1] (shRNA: shScramble), 0 DSS; in assay [2] (shRNA: shPPFIA1_1), 0 DSS; in assay [2] (shRNA: shScramble) it was 5.6 DSS.

For `C#Cc1cccc(Nc2ncnc3cc(OC)c(OCCCCCCC(=O)NO)cc23)c1` [CUDC-101], the drug sensitivity score came out at 10.2 DSS in assay [1] (shRNA: shPPFIA1_1), 7.4 DSS in assay [1] (shRNA: shScramble), 6.2 DSS in assay [2] (shRNA: shPPFIA1_1) and 9.8 DSS in assay [2] (shRNA: shScramble).

In the case of `CCS(=O)(=O)N1CC(CC#N)(n2cc(-c3ncnc4[nH]ccc34)cn2)C1` [Baricitinib], the drug sensitivity score worked out at 0 DSS in assay [1] (shRNA: shPPFIA1_1), 0 DSS in assay [1] (shRNA: shScramble), 0.9 DSS in assay [2] (shRNA: shPPFIA1_1) and 0.9 DSS in assay [2] (shRNA: shScramble).

Consider `Nc1ccn([C@@H]2O[C@H](CO)[C@@H](O)[C@@H]2O)c(=O)n1` [Cytarabine], for which the drug sensitivity score is 0 DSS in assay [1] (shRNA: shPPFIA1_1), 0 DSS in assay [1] (shRNA: shScramble), 0 DSS in assay [2] (shRNA: shPPFIA1_1) and 1.6 DSS in assay [2] (shRNA: shScramble).

As to `COc1cc(OC)c(/C=C/S(=O)(=O)Cc2ccc(OC)c(NCC(=O)O)c2)c(OC)c1` [Rigosertib], the drug sensitivity score in assay [1] (shRNA: shPPFIA1_1) was 2.4 DSS; in assay [1] (shRNA: shScramble), 2.4 DSS; in assay [2] (shRNA: shPPFIA1_1), 0 DSS; in assay [2] (shRNA: shScramble), 5.3 DSS.

On to `O=C(O)CCCc1ccc(N(CCCl)CCCl)cc1` [Chlorambucil], for which the drug sensitivity score in assay [1] (shRNA: shPPFIA1_1), in assay [1] (shRNA: shScramble), in assay [2] (shRNA: shPPFIA1_1) and in assay [2] (shRNA: shScramble) was 0 DSS each time.

On to `CC(=O)O[C@]1(C(C)=O)CC[C@H]2[C@@H]3C=C(C)C4=CC(=O)CC[C@]4(C)[C@H]3CC[C@@]21C` [Megestrol acetate], for which the drug sensitivity score in assay [1] (shRNA: shPPFIA1_1), in assay [1] (shRNA: shScramble), in assay [2] (shRNA: shPPFIA1_1) and in assay [2] (shRNA: shScramble) was 0 DSS each time.

In the case of `CN1CCN(C2CCN(C(=O)Nc3cc(Oc4ccc(NC(=O)C5(C(=O)Nc6ccc(F)cc6)CC5)c(F)c4)ccn3)CC2)CC1` [Golvatinib], the drug sensitivity score stood at 0 DSS in assay [1] (shRNA: shPPFIA1_1), 0 DSS in assay [1] (shRNA: shScramble), 0.2 DSS in assay [2] (shRNA: shPPFIA1_1) and 2 DSS in assay [2] (shRNA: shScramble).

As to `Nc1cc(C(F)(F)F)c(-c2cc(N3CCOCC3)nc(N3CCOCC3)n2)cn1` [Buparlisib], the drug sensitivity score in assay [1] (shRNA: shPPFIA1_1) was 1.4 DSS; in assay [1] (shRNA: shScramble), 0 DSS; in assay [2] (shRNA: shPPFIA1_1), 0.9 DSS; in assay [2] (shRNA: shScramble) it was 6.2 DSS.

In the case of `Cc1c2oc3c(C)ccc(C(=O)N[C@@H]4C(=O)N[C@H](C(C)C)C(=O)N5CCC[C@H]5C(=O)N(C)CC(=O)N(C)[C@@H](C(C)C)C(=O)O[C@@H]4C)c3nc-2c(C(=O)N[C@@H]2C(=O)N[C@H](C(C)C)C(=O)N3CCC[C@H]3C(=O)N(C)CC(=O)N(C)[C@@H](C(C)C)C(=O)O[C@@H]2C)c(N)c1=O` [Dactinomycin], the drug sensitivity score in assay [1] (shRNA: shPPFIA1_1) amounted to 14.9 DSS; in assay [1] (shRNA: shScramble) it was 12.4 DSS; in assay [2] (shRNA: shPPFIA1_1) it was 14.1 DSS; in assay [2] (shRNA: shScramble) it was 25.9 DSS.

As for `Cc1cc2c(F)c(Oc3ncnn4cc(OC[C@@H](C)O)c(C)c34)ccc2[nH]1` [Brivanib], the drug sensitivity score in assay [1] (shRNA: shPPFIA1_1), in assay [1] (shRNA: shScramble), in assay [2] (shRNA: shPPFIA1_1) and in assay [2] (shRNA: shScramble) was 0 DSS each time.

On to `Cc1ncc(-c2ccnc(Nc3ccc(S(C)(=O)=O)cc3)n2)n1C(C)C` [AZD-5438], for which the drug sensitivity score is 2.7 DSS in assay [1] (shRNA: shPPFIA1_1), 0.5 DSS in assay [1] (shRNA: shScramble), 0.1 DSS in assay [2] (shRNA: shPPFIA1_1) and 2.3 DSS in assay [2] (shRNA: shScramble).

Regarding `N#Cc1c(Oc2ccc(F)c(NC(=O)Cc3cccc(C(F)(F)F)c3)c2)ccc2nc(NC(=O)C3CC3)sc12` [TAK-632], the drug sensitivity score is 17.8 DSS in assay [1] (shRNA: shPPFIA1_1), 5.3 DSS in assay [1] (shRNA: shScramble), 1.6 DSS in assay [2] (shRNA: shPPFIA1_1) and 8.7 DSS in assay [2] (shRNA: shScramble).

For the molecule `FC(F)(F)c1ccc(/C=C/c2nc(COc3ccc(CCCCn4ccnn4)cc3)co2)cc1` [Mubritinib], the drug sensitivity score in assay [1] (shRNA: shPPFIA1_1) was found to be 0 DSS; in assay [1] (shRNA: shScramble), 0 DSS; in assay [2] (shRNA: shPPFIA1_1) it was 2.1 DSS; in assay [2] (shRNA: shScramble) it was 2 DSS.

Consider `C[C@@H]1CCN(C(=O)CC#N)C[C@@H]1N(C)c1ncnc2[nH]ccc12` [Tofacitinib], for which the drug sensitivity score in assay [1] (shRNA: shPPFIA1_1) is 0.9 DSS; in assay [1] (shRNA: shScramble), 0.9 DSS; in assay [2] (shRNA: shPPFIA1_1), 0 DSS; in assay [2] (shRNA: shScramble), 0 DSS.

For `COc1ccccc1S(=O)(=O)Nc1ccc2c(c1)CN(C)C(=O)N2` [PFI-1], the drug sensitivity score worked out at 0 DSS in assay [1] (shRNA: shPPFIA1_1), 0 DSS in assay [1] (shRNA: shScramble), 1.4 DSS in assay [2] (shRNA: shPPFIA1_1) and 4.4 DSS in assay [2] (shRNA: shScramble).

As to `CO[C@H]1C[C@@H]2CC[C@@H](C)[C@@](O)(O2)C(=O)C(=O)N2CCCC[C@H]2C(=O)O[C@H]([C@H](C)C[C@@H]2CC[C@@H](O)[C@H](OC)C2)CC(=O)[C@H](C)/C=C(\C)[C@@H](O)[C@@H](OC)C(=O)[C@H](C)C[C@H](C)/C=C/C=C/C=C/1C` [Sirolimus], the drug sensitivity score in assay [1] (shRNA: shPPFIA1_1) came to 0 DSS; in assay [1] (shRNA: shScramble) it was 0 DSS; in assay [2] (shRNA: shPPFIA1_1) it was 0 DSS; in assay [2] (shRNA: shScramble) it was 6 DSS.
